# US11661426B2, “Imidazole-containing inhibitors of ALK2 kinase” (BioCryst Pharmaceuticals, Inc., priority 2017, dated 2023)
# Target: ALK2 (Homo sapiens (Human), UniProt Q04771)
# Experiment: ALK2 inhibition, LanthaScreen Eu Kinase Binding Assay (ThermoFisher Scientific / Life Technologies)
# Conditions: read-out: Measured Ki (IC50) Value for Compounds: IC50
# Description: Biochemical assays to measure the inhibitory effects of the compounds were performed by ThermoFisher Scientific (Life Technologies). ALK2 inhibition was tested using LanthaScreen™ Eu Kinase Binding Assay screening protocol.
# Sequence of ALK2 (Q04771 21-509): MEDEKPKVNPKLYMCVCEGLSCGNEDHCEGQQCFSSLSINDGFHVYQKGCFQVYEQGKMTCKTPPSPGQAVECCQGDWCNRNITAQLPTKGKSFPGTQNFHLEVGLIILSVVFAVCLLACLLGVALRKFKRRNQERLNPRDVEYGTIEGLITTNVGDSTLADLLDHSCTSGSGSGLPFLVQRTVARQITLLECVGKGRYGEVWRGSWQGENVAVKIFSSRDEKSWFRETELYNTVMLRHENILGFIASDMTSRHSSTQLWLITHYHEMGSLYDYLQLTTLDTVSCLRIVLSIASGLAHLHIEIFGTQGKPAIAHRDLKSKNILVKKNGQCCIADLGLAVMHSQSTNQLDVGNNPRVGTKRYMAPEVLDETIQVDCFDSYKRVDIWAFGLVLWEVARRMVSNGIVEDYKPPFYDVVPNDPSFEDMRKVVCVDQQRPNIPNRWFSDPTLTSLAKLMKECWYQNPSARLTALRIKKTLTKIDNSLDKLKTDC
row,Structure (SMILES),IC50 [nM]
1,"COc1cc(-n2cnc(Nc3nc(N4CCCC4)nc4scnc34)c2)cc(OC)c1OC [Compound 197a, 5-(pyrrolidin-1-yl)-N-(1-(3,4,5-trimethoxyphenyl)-1H-imidazol-4-yl)thiazolo[5,4-d]pyrimidin-7-amine]",< 100
2,"COc1cc(-n2cnc(Nc3ncc4ccccc4n3)c2)cc(OC)c1OC [Compound 198b, N-(1-(3,4,5-trimethoxyphenyl)-1H-imidazol-4-yl)quinazolin-2-amine]",100 to 1000
3,"COc1cc(-n2cnc(Nc3nc(N4CCCC4)c4c(ccn4S(=O)(=O)c4ccc(C)cc4)n3)c2)cc(OC)c1OC [Compound 199b, 4-(pyrrolidin-1-yl)-5-tosyl-N-(1-(3,4,5-trimethoxyphenyl)-1H-imidazol-4-yl)-5H-pyrrolo[3,2-d]pyrimidin-2-amine]",> 1000
4,"COc1cc(-n2cnc(Nc3nc(N4CCC[C@H]4CO)c4cccc(OC(C)C)c4n3)c2)cc(OC)c1OC [Compound 200b, (S)-(1-(8-isopropoxy-2-((1-(3,4,5-trimethoxyphenyl)-1H-imidazol-4-yl)amino)quinazolin-4-yl)pyrrolidin-2-yl)methanol]",< 100
5,"COc1cc(-n2cnc(Nc3ncc4c(n3)CCN(Cc3ccccc3)C4)c2)cc(OC)c1OC [Compound 201b, 6-benzyl-N-(1-(3,4,5-trimethoxyphenyl)-1H-imidazol-4-yl)-5,6,7,8-tetrahydropyrido[4,3-d]pyrimidin-2-amine]",< 100
6,"COc1cc(-n2cnc(Nc3ncc4c(n3)CN(Cc3ccccc3)CC4)c2)cc(OC)c1OC [Compound 202b, 7-benzyl-N-(1-(3,4,5-trimethoxyphenyl)-1H-imidazol-4-yl)-5,6,7,8-tetrahydropyrido[3,4-d]pyrimidin-2-amine]",< 100
7,"COc1cc(-n2cnc(Nc3nc(N4CCC[C@H]4C(N)=O)c4cccnc4n3)c2)cc(OC)c1OC [Compound 203b, (S)-1-(2-((1-(3,4,5-trimethoxyphenyl)-1H-imidazol-4-yl)amino)pyrido[2,3-d]pyrimidin-4-yl)pyrrolidine-2-carboxamide]",100 to 1000
8,"COc1cc(-n2cnc(Nc3nc(N4CCC[C@H]4C(N)=O)c4ccccc4n3)c2)cc(OC)c1OC [Compound 204b, (S)-1-(2-((1-(3,4,5-trimethoxyphenyl)-1H-imidazol-4-yl)amino)quinazolin-4-yl)pyrrolidine-2-carboxamide]",100 to 1000
9,"COc1cc(-n2cnc(Nc3nc(N4CCC[C@H]4C(N)=O)c4cccc(OC(C)C)c4n3)c2)cc(OC)c1OC [Compound 205b, (S)-1-(8-isopropoxy-2-((1-(3,4,5-trimethoxyphenyl)-1H-imidazol-4-yl)amino)quinazolin-4-yl)pyrrolidine-2-carboxamide]",100 to 1000
10,"COc1cc(-n2cnc(Nc3nc(N4CCC[C@H]4C(F)(F)F)c4cccn4n3)c2)cc(OC)c1OC [Compound 206b, (S)-4-(2-(trifluoromethyl)pyrrolidin-1-yl)-N-(1-(3,4,5-trimethoxyphenyl)-1H-imidazol-4-yl)pyrrolo[2,1-f][1,2,4]triazin-2-amine]",< 100
11,"COc1cc(-n2cnc(Nc3nc(N4CCCC4)c4sccc4n3)c2)cc(OC)c1OC [Compound 207b, 4-(pyrrolidin-1-yl)-N-(1-(3,4,5-trimethoxyphenyl)-1H-imidazol-4-yl)thieno[3,2-d]pyrimidin-2-amine]",< 100
12,"COc1cc(-n2cnc(Nc3ccc4ccc(Nc5cn(-c6cc(OC)c(OC)c(OC)c6)cn5)cc4c3)c2)cc(OC)c1OC [Compound 208b, N^2,N^7-bis(1-(3,4,5-trimethoxyphenyl)-1H-imidazol-4-yl)naphthalene-2,7-diamine]",< 100
13,"COc1cc(-n2cnc(Nc3nc(N4CC[C@@H](O)C4)c4cccn4n3)c2)cc(OC)c1OC [Compound 209b, (R)-1-(2-((1-(3,4,5-trimethoxyphenyl)-1H-imidazol-4-yl)amino)pyrrolo[2,1-f][1,2,4]triazin-4-yl)pyrrolidin-3-ol]",< 100
14,"COc1cc(-n2cnc(Nc3nc(N4CCC[C@@H]4C(N)=O)nn4cccc34)c2)cc(OC)c1OC [Compound 210a, (R)-1-(4-((1-(3,4,5-trimethoxyphenyl)-1H-imidazol-4-yl)amino)pyrrolo[2,1-f][1,2,4]triazin-2-yl)pyrrolidine-2-carboxamide]",< 100
15,"COc1cc(-n2cnc(Nc3nc(N4CC[C@H](O)C4)c4cccn4n3)c2)cc(OC)c1OC [Compound 211b, (S)-1-(2-((1-(3,4,5-trimethoxyphenyl)-1H-imidazol-4-yl)amino)pyrrolo[2,1-f][1,2,4]triazin-4-yl)pyrrolidin-3-ol]",< 100
16,"COc1c(C(C)=O)ccc(-n2cnc(Nc3nc(N4CCC[C@H]4CO)nn4cccc34)c2)c1OC [Compound 212g, (S)-1-(4-(4-((2-(2-(hydroxymethyl)pyrrolidin-1-yl)pyrrolo[2,1-f][1,2,4]triazin-4-yl)amino)-1H-imidazol-1-yl)-2,3-dimethoxyphenyl)ethanone]",< 100
17,"COc1cc(-n2cnc(Nc3nc4c(c(N5CCC[C@H]5C(N)=O)n3)CN(Cc3ccccc3)CC4)c2)cc(OC)c1OC [Compound 213b, (S)-1-(6-benzyl-2-((1-(3,4,5-trimethoxyphenyl)-1H-imidazol-4-yl)amino)-5,6,7,8-tetrahydropyrido[4,3-d]pyrimidin-4-yl)pyrrolidine-2-carboxamide]",< 100
18,"COc1cc(-n2cnc(Nc3nc(N4C[C@H](O)C[C@H]4CO)c4cccn4n3)c2)cc(OC)c1OC [Compound 214b, (3R,5S)-5-(hydroxymethyl)-1-(2-((1-(3,4,5-trimethoxyphenyl)-1H-imidazol-4-yl)amino)pyrrolo[2,1-f][1,2,4]triazin-4-yl)pyrrolidin-3-ol]",< 100
19,"COc1cc(-n2cnc(Nc3nc4c(c(N5CCC[C@H]5CO)n3)CCN(Cc3ccc(C(F)(F)F)cc3)C4)c2)cc(OC)c1OC [Compound 215a, (S)-(1-(7-(4-(trifluoromethyl)benzyl)-2-((1-(3,4,5-trimethoxyphenyl)-1H-imidazol-4-yl)amino)-5,6,7,8-tetrahydropyrido[3,4-d]pyrimidin-4-yl)pyrrolidin-2-yl)methanol]",< 100
20,"COc1cc(-n2cnc(Nc3nc4c(c(N5CCC[C@H]5CO)n3)CCN(Cc3cccnc3)C4)c2)cc(OC)c1OC [Compound 216a, (S)-(1-(7-(pyridin-3-ylmethyl)-2-((1-(3,4,5-trimethoxyphenyl)-1H-imidazol-4-yl)amino)-5,6,7,8-tetrahydropyrido[3,4-d]pyrimidin-4-yl)pyrrolidin-2-yl)methanol]",< 100
21,"COc1cc(-n2cnc(Nc3nc4c(c(N5CCC[C@H]5CO)n3)CCN(Cc3cccc(OC(F)(F)F)c3)C4)c2)cc(OC)c1OC [Compound 217a, (S)-(1-(7-(3-(trifluoromethoxy)benzyl)-2-((1-(3,4,5-trimethoxyphenyl)-1H-imidazol-4-yl)amino)-5,6,7,8-tetrahydropyrido[3,4-d]pyrimidin-4-yl)pyrrolidin-2-yl)methanol]",< 100
22,"COc1cc(-n2cnc(Nc3nc4c(c(N5CCC[C@H]5CO)n3)CCN(CC(N)=O)C4)c2)cc(OC)c1OC [Compound 218a, (S)-2-(4-(2-(hydroxymethyl)pyrrolidin-1-yl)-2-((1-(3,4,5-trimethoxyphenyl)-1H-imidazol-4-yl)amino)-5,6-dihydropyrido[3,4-d]pyrimidin-7(8H)-yl)acetamide]",< 100
23,"COc1cc(-n2cnc(Nc3nc4c(c(N5CCC[C@H]5CO)n3)CCN(Cc3ccc(C#N)cc3)C4)c2)cc(OC)c1OC [Compound 219a, (S)-4-((4-(2-(hydroxymethyl)pyrrolidin-1-yl)-2-((1-(3,4,5-trimethoxyphenyl)-1H-imidazol-4-yl)amino)-5,6-dihydropyrido[3,4-d]pyrimidin-7(8H)-yl)methyl)benzonitrile]",< 100
24,"COc1cc(-n2cnc(Nc3nc4c(c(N5CCC[C@H]5CO)n3)CCN(Cc3cccc(C#N)c3)C4)c2)cc(OC)c1OC [Compound 220a, (S)-3-((4-(2-(hydroxymethyl)pyrrolidin-1-yl)-2-((1-(3,4,5-trimethoxyphenyl)-1H-imidazol-4-yl)amino)-5,6-dihydropyrido[3,4-d]pyrimidin-7(8H)-yl)methyl)benzonitrile]",< 100
25,"COc1cc2nc(Nc3cn(-c4cc(OC)c(OC)c(OC)c4)cn3)nc(N3CCC[C@H]3CO)c2cc1OC [Compound 221c, (S)-(1-(6,7-dimethoxy-2-((1-(3,4,5-trimethoxyphenyl)-1H-imidazol-4-yl)amino)quinazolin-4-yl)pyrrolidin-2-yl)methanol]",< 100
26,"COc1cc(-n2cnc(Nc3nc(N4CCC[C@H]4C(C)(C)O)c4cccn4n3)c2)cc(OC)c1OC [Compound 222b, (S)-2-(1-(2-((1-(3,4,5-trimethoxyphenyl)-1H-imidazol-4-yl)amino)pyrrolo[2,1-f][1,2,4]triazin-4-yl)pyrrolidin-2-yl)propan-2-ol]",< 100
27,"COc1cc(-n2cnc(Nc3nc(N4CC(F)(F)C[C@H]4CO)c4cccn4n3)c2)cc(OC)c1OC [Compound 223b, (S)-(4,4-difluoro-1-(2-((1-(3,4,5-trimethoxyphenyl)-1H-imidazol-4-yl)amino)pyrrolo[2,1-f][1,2,4]triazin-4-yl)pyrrolidin-2-yl)methanol]",< 100
28,"COc1cc(-n2cnc(Nc3nc4c(c(N5CCCC5)n3)CN(Cc3ccccc3)CC4)c2)cc(OC)c1OC [Compound 224b, 6-benzyl-4-(pyrrolidin-1-yl)-N-(1-(3,4,5-trimethoxyphenyl)-1H-imidazol-4-yl)-5,6,7,8-tetrahydropyrido[4,3-d]pyrimidin-2-amine]",< 100
29,"COc1cc(-n2cnc(Nc3nc4c(c(N5CCCC5)n3)CCN(Cc3ccccc3)C4)c2)cc(OC)c1OC [Compound 225b, 7-benzyl-4-(pyrrolidin-1-yl)-N-(1-(3,4,5-trimethoxyphenyl)-1H-imidazol-4-yl)-5,6,7,8-tetrahydropyrido[3,4-d]pyrimidin-2-amine]",< 100
30,"COc1cc(-n2cnc(Nc3nc4c(c(N5CCC[C@H]5CO)n3)CCCC4)c2)cc(OC)c1OC [Compound 226c, (S)-(1-(2-((1-(3,4,5-trimethoxyphenyl)-1H-imidazol-4-yl)amino)-5,6,7,8-tetrahydroquinazolin-4-yl)pyrrolidin-2-yl)methanol]",< 100
